From patent US9290768B2, “Engineered microorganisms having resistance to ionic liquids” (priority 2012, dated 2016)

Columns and labels:
E. coli = test: Methyl viologen tolerance of E. coli expressing MFS1; assay type: cell-based; details: FIG. 6
Description: Bottom solid lines are empty vector and tetR-mfs.
The closest homologue of MFS1 is a methyl viologen transporter protein in K. oxytoca. MFS1 conferred tolerance to this compound in E. coli (FIG. 6).

[1] = test system: E. coli expressing the transporter gene; assay type: cell-based; details: ionic liquids at equimolar levels; MFS1-expressing E. coli
Protocol: Top line, MFS/[C2mim]Cl; Second line from top, MFS/C2mim]Oac; Second line from bottom, empty vector//[C2mim]Cl; Bottom, line empty vector/C2mim]Oac
In one experiment, E. coli expressing the transporter gene were also cultured in media differing only in the type of imidazolium ionic liquid (at equimolar levels), to assess the influence of aliphatic chain lengths of the cation, and the anions Cl—, BuSO4-, and acetate.

[2] = test system: Enterobacter lignolyticus SCF1; test: Growth of soil isolate in ionic liquid (IL resistance testing); assay type: cell-based; details: Enterobacter lignolyticus SCF1, tropical rain forest soil isolate
Description: In testing for IL resistance in a tropical rain forest soil community, a bacterium that grows in up to 8% 1-ethyl-3-methylimidazolium chloride ([C2mim]Cl) was isolated. It is a Gram-negative anaerobe that is both lignocellulolytic and halotolerant: Enterobacter lignolyticus SCF1 (DeAngelis, et al., Standards in Genomic Sciences 5:69-85, 2011; Khudyakov, et al., Global transcriptome response to ionic liquid by a tropical rain forest soil bacterium, Enterobacter lignolyticus. Proc. Natl. Acad. Sci USA, 2012). We examined SCF1 to identify genes contributing to IL tolerance using various analyses, including screening an E. coli fosmid library containing SCF1 genomic DNA.

[3] = test system: E. coli containing an expression plasmid encoding the entire 2.6 kbp insert; test: Growth of E. coli carrying the 2.6 kbp SCF1 insert at different levels of [C2mim]Cl (shake flask growth assay); assay type: cell-based; details: E. coli clones comprising the mfs1 gene sequence; FIG. 3
Description: FIG. 3 provides data from a 50-ml shake flask growth assay showing the resistance of E. coli containing the 2606 bp region to 4% and 6% [C2mim]Cl. Top panel: lines correspond to E. coli with common sequence; Enterobacter lignolyticus; and E. coli with empty vector; Middle panel (lines designated using hour 6 as a reference point): top line, E. coli with common sequence; middle line, Enterobacter lignolyticus; bottom line, E. coli with empty vector. Bottom panel: top line, E. coli with common sequence; middle line, Enterobacter lignolyticus; bottom line, E. coli with empty vector
SCF1 cells and E. coli containing an expression plasmid encoding the entire 2.6 kbp insert were tested at different levels of [C2mim]Cl.

TetR-repressor = test: MFS1-GFP fusion protein fluorescence (flow-cytometry), induction of repressor; assay type: cell-based, Enterobacter lignolyticus; details: FIG. 5
Protocol: FIG. 5 provides illustrative data showing that [C2mim]Cl-inducible TetR-repressor regulates MFS-expression. […] In the absence of this repressor, the intergenic promoter-region was constitutively turned on (left columns in bar graph compared to right columns).
An SCF1 library was constructed using 30-50 kb genomic DNA inserts in fosmid vectors, and E. coli transformants were plated on 2% [C2mim]Cl for initial selection. GFP-fluorescence was measured by flow-cytometry.
In the absence of this repressor, the intergenic promoter-region was constitutively turned on.

C[n+]1ccc(-c2cc[n+](C)cc2)cc1 [methyl viologen]
tolerance of E. coli conferred by MFS1 (E. coli): confers tolerance

CC(=O)[O-].CCn1cc[n+](C)c1 [[C2mim]-Acetate, 1-ethyl-3-methylimidazolium acetate]
tolerance of E. coli expressing the transporter gene to the ionic liquid [1]: confers tolerance

CCCCn1cc[n+](C)c1.[Cl-] [BMIM-Cl, 1-butyl-3-methylimidazolium chloride]
tolerance of E. coli expressing the transporter gene to the ionic liquid [1]: lower tolerance than with EMIM-Cl

CCn1cc[n+](C)c1.[Cl-] [[C2mim]Cl, 1-ethyl-3-methylimidazolium chloride]
ionic liquid level in which the bacterium grows [2]: up to 8% | ionic liquid level at which the clones exhibited resistance [3]: at least 6% | induction of the TetR-repressor / regulation of MFS1-expression (TetR-repressor): inducible
